Here are results for 18 compounds from patent US4940730A, “Angiogenesis enhancer” (Takeda Chemical Industries, Ltd., priority 1987, dated 1990).

Test [1] relates to hen's chlorioallantoic membrane. The experiment in a line: CAM (Chorio Allantoic Membrane) assay. The test is classed as in vivo. Particulars: for ED50: amount of drug which gave the numerical value 5 (positive rate) in CAM assay; for Positive rate of CAM assay: average neovascularization score (++=10, +=7, °=3, -=0), 3 days on membrane. Here is the method: CAM (Chorio Allantoic Membrane) assay was conducted on various compounds of the present invention. The technique of the CAM assay was that modified somewhat on Auerbach's method [Developmental Biology, 41, 391 (1974)]. More specifically, hen's fertile eggs were incubated for three days at 37° C. (Napco carbon dioxide incubator-6300 was employed, CO2 :0% H2 O saturated). Polypropylene-made discs (6 mm. diameter) were spotted with a chloroform:ethanol (1:4 by volume) solution of each compound so that the concentration may be 0, 0.25, 0.64, 1.6, 4, 10 and 25 ug, respectively. The test materials were air-dried in a clean bench, which were then placed quietly on hen's chlorioallantoic membrane, followed by incubation at 37° C. for further three days. Then, the vascularization state was observed. In the tables, the positive rates were calculated on the following basis. Namely, degrees of neovascularization were determined as ++ for very strong, + for strong, ° for weak and - for negative, and they were numerized as 10, 7, 3 and 0, respectively. The average numerical value in each of the concentrations of the respective samples was made as positive rate. Further, the amount of the drug which gave the numerical value 5 in each sample was shown as ED50 value (ug/disc).

In test [2] the test system is cornea. Description: Rat cornea test. Format: in vivo, Wister rats. Particulars: after two weeks; for elongation of blood vessels: rat cornea. From the text: Namely, Wister rats (14-week old, male) were anesthetized, then pockets (about 2×3 mm in size) were provided in the cornea. […] The test samples enveloped were erucamide, lauramide and erucic acid, and, as the control, Elvax®-40 in which nothing was enveloped was used.

The subject of test [3] is dorsal air-sack. Description: Mouse dorsal air-sack method. Format: in vivo, ICR mice. Further details: key to blood vessel elongation action: +, ++; blood vessel elongation action positive; +, ++; blood vessel elongation action positive; -: blood vessel elongation action negative. The conditions noted are these: ten days later; for blood vessel elongation action: 1 mg test sample enveloped in Elvax-40. How it is done:
Experimental work was conducted in accordance with the method of Yoshii et al. [Igaku no ayumi, 122 (No. 10), p. 890 (1982)]. More specifically, ICR mice (9-week old, males) were anesthetized, and the hair at the dorsal site was shaved with clippers. The site was sterilized with alcohol, and an injection needle was inserted at the site located at a distance of 1 cm from the tail side. Through the needle, about 20 ml of air was introduced. Then, the air in the air-sack (on the tail side) was drawn out. Test samples enveloped in Elvax®-40 were inserted into both, left and right, sides (at one of the both sides, only Elvax®-40 as the control). The incised site was closed, and, ten days later, the site was incised again and the state of elongation of blood vessel was observed. The test samples enveloped were erucamide, lauramide and erucic acid, and the results compared with one another.

Setting [4] is: amount of sample 0.64 μg per disc.
[5] abbreviates: amount of sample 1.6 μg per disc.
Setting [6] is: amount of sample 10 μg per disc.
The mark [7] stands for this setting: amount of sample 25 μg per disc.
Setting [8] is: 30 μg test material in Elvax-40 gel in corneal pocket.

`CCCCCCCC/C=C\CCCCCCCCCCCC(=O)O` [Erucic acid] returned an ED50 in test [1] of 4.69 ug/disc. The “Positive rate of CAM assay” value in test [1] (setting [4]) is on record as 1.4; in test [1] (setting [5]), 2.8; in test [1] (amount of sample 4 μg per disc) it was 4; in test [1] (setting [6]), 8.2; in test [1] (setting [7]), 9.4. For the same compound, the “Action of elongation of blood vessel” value in test [2] (setting [8]) is recorded as “++”. In addition, the “elongation of blood vessels” value in test [2] was “strong elongation action”.
Compound `CCCCCCCC/C=C\CCCCCCCCCCCC(N)=O` [Erucamide] returned an ED50 in test [1] of 2.13 ug/disc. Also, the “Positive rate of CAM assay” value came to 1.4 in test [1] (setting [4]); 3.4 in test [1] (setting [5]); 9.4 in test [1] (amount of sample 4 μg per disc); 10 in test [1] (setting [6]); 10 in test [1] (setting [7]). Further, the “Action of elongation of blood vessel” value in test [2] (setting [8]) is given as “++”. Further, in test [2], the “elongation of blood vessels” value is recorded as “strong elongation action”. The “blood vessel elongation action” value in test [3] is recorded as “++”. Also, in test [3] (mouse dorsal air-sack), the “blood vessel elongation” value is listed as “strong action of blood vessel elongation”.
Take `CCCCCCCCCCCCCCCCCCCC(N)=O` [Arachidamide]: the ED50 in test [1] was found to be 11.5 ug/disc. Besides, the “Positive rate of CAM assay” value in test [1] (setting [4]) came to 0; in test [1] (setting [5]) it was 2.8; in test [1] (amount of sample 4 μg per disc), 3.4; in test [1] (setting [6]), 4.6; in test [1] (setting [7]), 7.4.
Take `CCCCCCCC/C=C/CCCCCCCC(=O)O` [Elaidic acid]: the “Positive rate of CAM assay” value in test [1] (setting [4]) was found to be 0; in test [1] (setting [5]), 0; in test [1] (amount of sample 4 μg per disc), 3; in test [1] (setting [6]), 4; in test [1] (setting [7]), 4.
Turning to `CCCCCCCC/C=C\CCCCCCCC(=O)O` [Oleic acid], the ED50 in test [1] worked out at 13.7 ug/disc. The “Positive rate of CAM assay” value in test [1] (setting [4]) was determined as 0; in test [1] (setting [5]) it was 0.8; in test [1] (amount of sample 4 μg per disc) it was 2.5; in test [1] (setting [6]), 4; in test [1] (setting [7]) it was 7.
Take `CCCCCCCC/C=C\CCCCCCCCCCCC(=O)Nc1cccc(C(=O)O)c1` [m-aminobenzoic acid, N-ercoyl-3-aminobenzoic acid]: in test [1], the ED50 is on record as 1.28 ug/disc. In addition, the “Positive rate of CAM assay” value came out at 2.0 in test [1] (setting [4]); 6.0 in test [1] (setting [5]); 7.4 in test [1] (amount of sample 4 μg per disc); 10 in test [1] (setting [6]); 10 in test [1] (setting [7]).
Regarding `CCCCCCCC/C=C\CCCCCCCCCCCC(=O)N1CCC[C@H]1C(=O)OC` [proline methylester, N-erucoyl-proline methyl ester], the ED50 in test [1] came to 4.00 ug/disc. The “Positive rate of CAM assay” value in test [1] (setting [4]) is reported as 0.8; in test [1] (setting [5]), 2.3; in test [1] (amount of sample 4 μg per disc), 5.0; in test [1] (setting [6]), 7.8; in test [1] (setting [7]) it was 10.
Take `CCCCCCCC/C=C\CCCCCCCC(N)=O` [Oleamide]: the ED50 in test [1] is given as 16.7 ug/disc. Besides, the “Positive rate of CAM assay” value in test [1] (setting [4]) was 0; in test [1] (setting [5]), 0.6; in test [1] (amount of sample 4 μg per disc), 0; in test [1] (setting [6]), 7.8; in test [1] (setting [7]), 6.8.
The compound `CCCCCCCCC1OC1CCCCCCCCCCCC(N)=O` (stereo not shown) [13,14-Epoxyerucamide] had an ED50 in test [1] of 2.22 ug/disc. Moreover, the “Positive rate of CAM assay” value in test [1] (setting [4]) turned out to be 1.5; in test [1] (setting [5]), 3.3; in test [1] (amount of sample 4 μg per disc), 8.5; in test [1] (setting [6]), 10; in test [1] (setting [7]) it was 10.
`CCCCCCCC/C=C\CCCCCCCCCCCC(=O)Nc1ccc(Cl)cc1C(=O)O` [2-NH2-4-Cl-BzCO2 H, N-erucoyl-2-amino-5-chlorobenzoic acid] gave an ED50 in test [1] of 2.70 ug/disc. The “Positive rate of CAM assay” value was determined as 2.6 in test [1] (setting [4]); 4.2 in test [1] (setting [5]); 5.6 in test [1] (amount of sample 4 μg per disc); 8.0 in test [1] (setting [6]); 10 in test [1] (setting [7]).
`CCCCCCCCCCCCCCCCCCCCCC[N+](C)(C)C` [1-Trimethyammonio docosane bromide] gave an ED50 in test [1] of 4.00 ug/disc. Besides, the “Positive rate of CAM assay” value turned out to be 0 in test [1] (setting [4]), 4.5 in test [1] (setting [5]), 5.0 in test [1] (amount of sample 4 μg per disc) and 8.0 in test [1] (setting [6]).
`CCCCCCCCCCCC(N)=O` [Lauramide, reference compound]: the “Positive rate of CAM assay” value in test [1] (setting [4]) was determined as 0.3; in test [1] (setting [5]), 0.7; in test [1] (amount of sample 4 μg per disc) it was 0; in test [1] (setting [6]) it was 0; in test [1] (setting [7]) it was 0.3. The “Action of elongation of blood vessel” value in test [2] (60 μg test material in Elvax-40 gel in corneal pocket) is reported as “-”. Also, the “blood vessel elongation action” value in test [3] is “-”.
For `CCCCCCCCCCCCCC(=O)O` [Myristic acid], in test [1], the ED50 is on record as 25.0 ug/disc. Further, the “Positive rate of CAM assay” value in test [1] (setting [4]) is on record as 0; in test [1] (setting [5]) it was 0; in test [1] (amount of sample 4 μg per disc), 0.8; in test [1] (setting [6]), 4; in test [1] (setting [7]), 5.
`CCCCCCCCCCCCCCCCCCCCCCO` [Docosan-1-ol] had an ED50 in test [1] of 2.55 ug/disc. The “Positive rate of CAM assay” value was determined as 0 in test [1] (setting [4]); 1.8 in test [1] (setting [5]); 8.3 in test [1] (amount of sample 4 μg per disc); 10 in test [1] (setting [6]); 10 in test [1] (setting [7]).
`CCCCCCCCCCCCCC(N)=O` [Myristamide]: the “Positive rate of CAM assay” value in test [1] (setting [4]) is 0; in test [1] (setting [5]), 0; in test [1] (amount of sample 4 μg per disc), 1.3; in test [1] (setting [6]), 2.6; in test [1] (setting [7]), 3.5.
In test [1], `CCCCCCCCCCCCCCCCCCCCCCCC(=O)O` [Lignoceric acid] returned an ED50 of 4.61 ug/disc. Also, the “Positive rate of CAM assay” value in test [1] (setting [4]) was 1.4; in test [1] (setting [5]), 2; in test [1] (amount of sample 4 μg per disc), 4.6; in test [1] (setting [6]), 7.6; in test [1] (setting [7]), 6.2.
`CCCCC/C=C\C/C=C\CCCCCCCC(=O)O` [Linoleic acid] had an ED50 in test [1] of 7.69 ug/disc. Also, the “Positive rate of CAM assay” value was determined as 0 in test [1] (setting [4]); 1.8 in test [1] (setting [5]); 2.5 in test [1] (amount of sample 4 μg per disc); 6 in test [1] (setting [6]); 10 in test [1] (setting [7]).
In test [1], `CCCCC/C=C\C/C=C\C/C=C\C/C=C\CCCC(=O)O` [Arachidonic acid] displayed an ED50 of 3.64 ug/disc. Further, the “Positive rate of CAM assay” value is listed as 2.5 in test [1] (setting [4]); 3.5 in test [1] (setting [5]); 5.3 in test [1] (amount of sample 4 μg per disc); 7 in test [1] (setting [6]); 10 in test [1] (setting [7]).
